Species on record: Rattus norvegicus
Test: DrugMatrix - Regimen: Daily Repeat
Format: toxicity, organism-based, Sprague-Dawley
Set-up: regimen Daily Repeat, gender Male, age 6-8 weeks
Settings: in vivo, sc, route subcutaneous, […]; for ABSOLUTE BASOPHIL / BASOPHIL / ABSOLUTE EOSINOPHIL / ABSOLUTE LYMPHOCYTE / ABSOLUTE MONOCYTE / ABSOLUTE SEGMENTED NEUTROPHIL / EOSINOPHIL / ERYTHROCYTE COUNT / HEMATOCRIT / HEMOGLOBIN / LEUKOCYTE COUNT / LYMPHOCYTE / MEAN CORPUSCULAR HEMOGLOBIN / MEAN CORPUSCULAR HEMOGLOBIN CONCENTRATION / MEAN CORPUSCULAR VOLUME / MONOCYTE / NEUTROPHIL / NUCLEATED RED BLOOD CELLS / PLATELET COUNT: tissue Blood
[1] = 0 mg/kg, 72 h, dose level Control, time 3 day
[2] = 0 mg/kg, 120 h, dose level Control, time 5 day
[3] = 0.1 mg/kg, 72 h, dose level Low, time 3 day
[4] = 0.1 mg/kg, 72 h, tissue Plasma, dose level Low, time 3 day
[5] = 0.1 mg/kg, 120 h, dose level Low, time 5 day
[6] = 0.1 mg/kg, 120 h, tissue Plasma, dose level Low, time 5 day

## C[C@]12CC[C@@H]3c4ccc(OC(=O)c5ccccc5)cc4CC[C@H]3[C@@H]1CC[C@@H]2O [ESTRADIOL BENZOATE]
[1]
  ABSOLUTE BASOPHIL: 0 CELLS/uL
  BASOPHIL: 0%
[2]
  ABSOLUTE BASOPHIL: 0 CELLS/uL
  BASOPHIL: 0%
0 mg/kg, 120 h, tissue Plasma, dose level Control, time 5 day
  CREATININE: 0.17 mg/dL
[3]
  ABSOLUTE BASOPHIL: 0 CELLS/uL
  ABSOLUTE EOSINOPHIL: 27.33 CELLS/uL
  ABSOLUTE LYMPHOCYTE: 9086.67 CELLS/uL
  ABSOLUTE MONOCYTE: 78.67 CELLS/uL
  ABSOLUTE SEGMENTED NEUTROPHIL: 1407.33 CELLS/uL
  BASOPHIL: 0%
  EOSINOPHIL: 0.33%
  ERYTHROCYTE COUNT: 6.05 x10E6/uL
  HEMATOCRIT: 38.9%
  HEMOGLOBIN: 13.37 G/DL
  LEUKOCYTE COUNT: 10.6 x10E3/uL
  LYMPHOCYTE: 85.67%
  MEAN CORPUSCULAR HEMOGLOBIN: 22.27 pg
  MEAN CORPUSCULAR HEMOGLOBIN CONCENTRATION: 34.73 G/DL
  MEAN CORPUSCULAR VOLUME: 64.23 fL
  MONOCYTE: 0.67%
  NEUTROPHIL: 13.33%
  NUCLEATED RED BLOOD CELLS: 0 /100WBC
  PLATELET COUNT: 1490.33 x10E3/uL
[4]
  ALANINE AMINOTRANSFERASE: 35.67 u/L
  ALBUMIN: 4.43 G/DL
  ALKALINE PHOSPHATASE: 250.67 u/L
  ASPARTATE AMINOTRANSFERASE: 76 u/L
  BLOOD UREA NITROGEN: 10 mg/dL
  CARBON DIOXIDE: 23.67 mmol/L
  CHLORIDE: 100.33 MEQ/L
  CHOLESTEROL: 76.67 mg/dL
  CREATINE PHOSPHOKINASE: 460 u/L
  CREATININE: 0.17 mg/dL
  GLUCOSE: 191.67 mg/dL
  LACTATE DEHYDROGENASE: 269.67 u/L
  LIPASE: 9 u/L
  PHOSPHORUS: 12.77 mg/dL
  POTASSIUM: 6.18 MEQ/L
  SODIUM: 140.73 MEQ/L
  TOTAL BILIRUBIN: 0.1 mg/dL
  TOTAL PROTEIN: 5.77 G/DL
  URIC ACID: 3.8 mg/dL
[5]
  ABSOLUTE BASOPHIL: 0 CELLS/uL
  ABSOLUTE EOSINOPHIL: 79 CELLS/uL
  ABSOLUTE LYMPHOCYTE: 6274.33 CELLS/uL
  ABSOLUTE MONOCYTE: 295 CELLS/uL
  ABSOLUTE SEGMENTED NEUTROPHIL: 551.67 CELLS/uL
  BASOPHIL: 0%
  EOSINOPHIL: 1%
  ERYTHROCYTE COUNT: 5.91 x10E6/uL
  HEMATOCRIT: 35.77%
  HEMOGLOBIN: 13.47 G/DL
  LEUKOCYTE COUNT: 7.2 x10E3/uL
  LYMPHOCYTE: 86.67%
  MEAN CORPUSCULAR HEMOGLOBIN: 22.8 pg
  MEAN CORPUSCULAR HEMOGLOBIN CONCENTRATION: 37.67 G/DL
  MEAN CORPUSCULAR VOLUME: 60.53 fL
  MONOCYTE: 4%
  NEUTROPHIL: 8.33%
  NUCLEATED RED BLOOD CELLS: 0 /100WBC
  PLATELET COUNT: 1231.67 x10E3/uL
[6]
  ALANINE AMINOTRANSFERASE: 39.67 u/L
  ALBUMIN: 5.37 G/DL
  ALKALINE PHOSPHATASE: 187.33 u/L
  ASPARTATE AMINOTRANSFERASE: 63 u/L
  BLOOD UREA NITROGEN: 13.67 mg/dL
  CARBON DIOXIDE: 29 mmol/L
  CHLORIDE: 98.33 MEQ/L
  CHOLESTEROL: 96.33 mg/dL
  CREATINE PHOSPHOKINASE: 578 u/L
  CREATININE: 0.18 mg/dL
  GLUCOSE: 128.33 mg/dL
  LACTATE DEHYDROGENASE: 137 u/L
  LIPASE: 10.67 u/L
  PHOSPHORUS: 11.5 mg/dL

From ChEMBL document CHEMBL3885881, “DrugMatrix”
